The source of these data is patent US5571701A, “Antibiotic, balhimycin, a process for its production and its use as pharmaceutical” (priority 1990, dated 1996).

The MIC is the least concentration at which growth counts as inhibited. Lower therefore signals greater potency.

Data set [1] in a line: Solubility (physico-chemical properties). The conditions noted are these: as its trifluoroacetate salt; solvents in which soluble. The format is physicochemical.
The test system of a further data set is P. vulaaris. The data set is described as follows: Minimum inhibitory concentration (MIC), antibacterial activity. The class given is cell-based.
The test system of another data set is Ps. aeruaingu. The description is as above. The class given is cell-based.

Structures can show the parent of a compound that is named as a salt.

For the compound `CNC(CC(C)C)C(=O)NC1C(=O)NC(CC(N)=O)C(=O)NC2C(=O)NC3C(=O)NC(C(=O)NC(C(=O)O)c4cc(O)cc(O)c4-c4cc3ccc4O)C(OC3C[C@](C)(N)C(=O)C(C)O3)c3ccc(c(Cl)c3)Oc3cc2cc(c3OC2O[C@H](CO)C(O)[C@H](O)C2O)Oc2ccc(cc2Cl)C1O` (stereo partly drawn) [Balhimycin trifluoroacetate, Balhimycin], in data set [1], the Solubility entry is “Water, dimethylsulfoxide”. Further, the MIC in the data set with P. vulaaris and in the data set on Ps. aeruaingu was over 100 µg/mL in each case.
